In US20220347297A1, “METHODS OF PERMITTING A SUBJECT TO RECEIVE MULTIPLE DOSES OF RECOMBINANT ADENO-ASSOCIATED VIRUS” (University of Florida Research Foundation, Incorporated, priority 2014, published 2022):
“Also recorded” adds a separate entry of the source.

What was measured:
[1] = test system: anti-rAAV NAbs / GAA antibody responses; details: cited from earlier work
[2] = test system: B-cells (CD20), CD3 positive lymphocytes; assay: Enumeration of B- and T-lymphocyte subpopulations in peripheral blood by flow cytometry; type: in vivo, human; details: 375 mg/m^2 weekly for 3 weeks, then at 12 weeks intervals
Experimental: Enumeration of B- and T-lymphocyte subpopulations in peripheral blood was done by flow cytometry using monoclonal Abs to CD19 or CD20 for B cells and monoclonal Abs to CD3, CD4, and CD8 for T cells. Sirolimus trough levels, IgG, CD3, CD4, CD8, CD19, CD20, N-terminal pro-brain natriuretic peptide, creatine kinase, creatine kinase-MB, C-reactive protein, platelets, alkaline phosphatase, gamma-glutamyl transferase, aspartate aminotransferase, and alanine aminotransferase were measured at regular intervals.

[3] = test system: AAV1 capsid proteins; assay: ELISA for circulating antibodies to AAV1 capsid in serum of Pompe subjects; details: Pompe patient, rituximab with sirolimus prior to rAAV1-GAA
Experimental: Serum samples were assayed by ELISA for circulating antibodies to the AAV1 capsid proteins.
Serum samples were assayed by enzyme linked immunosorbent assay (ELISA) for circulating antibodies to the intact AAV1 capsid and hGAA protein 21, 46. Anti-AAV1 and anti-hGAA ASR and ELISPOT assay were performed as previously described on isolated peripheral blood mononuclear cells (ref. 47).

Rituximab: monoclonal antibody that induces B-cell depletion by binding the CD20 protein found on the surface of B-cells
GAA antibody responses to ERT ([1]; CRIM-negative infants with early-onset Pompe disease, Rituximab plus Sirolimus before initiation of ERT (Elder et al.)): able to block GAA antibody responses | existing anti-rAAV NAbs ([1]; humans receiving rituximab for rheumatoid arthritis (ref. 33) and non-human primates): successful in reduction | CD20 counts (B-cells) [2]: complete depletion | immune response to rAAV vector (capsid and transgene) after B-cell depletion prior to vector exposure [3]: immune non-responsiveness; also recorded: nonresponsiveness to both capsid and transgene
